One molecule from US20030212116A1 (priority 1999, published 2003) can be followed below.

The melting point is the temperature of the solid-liquid transition.

Structures are written as SMILES.

`COC(=O)Cc1ccccc1N=C1N(C)CC(=O)N1C` displayed a melting point of 57 to 59 °C.
